Source: the NIST ThermoML archive (doi:10.1016/j.fluid.2015.07.012)

Assay: xn = mol fraction of the nth substance listed
Settings: Liquid; for viscosity: Capillary tube (Ostwald / Ubbelohde) method; for mass density: Vibrating tube method

CO [methanol] + O
Settings	mass density, 10000 kPa [kg/m3]	mass density, 20000 kPa [kg/m3]	mass density, 30000 kPa [kg/m3]	mass density, 40000 kPa [kg/m3]	viscosity, 10000 kPa [mPa·s]	viscosity, 20000 kPa [mPa·s]	viscosity, 30000 kPa [mPa·s]	viscosity, 40000 kPa [mPa·s]
350.7 K, x1 = 0.1	945.55	949.82	954.11	958.39	0.448	0.454	0.458	0.473
350.7 K, x1 = 0.2	917.41	921.49	927.03	931.54	0.503	0.514	0.526	0.543
350.7 K, x1 = 0.3	889.97	895.56	901.14	906.05	0.514	0.528	0.542	0.558
350.7 K, x1 = 0.4	865.13	870.55	876.99	882.71	0.512	0.529	0.544	0.565
350.7 K, x1 = 0.6	819.84	827.75	835.46	842.38	0.449	0.47	0.494	0.519
350.7 K, x1 = 0.8	780.91	789.25	797.6	805.96	0.379	0.4	0.416	0.443
350.7 K, x1 = 1	–	–	–	–	0.298	0.313	0.331	0.351
373.2 K, x1 = 0.1	928.71	932.78	939.53	943.52	0.33	0.337	0.339	0.347
373.2 K, x1 = 0.2	900.41	904.78	911.46	914.74	0.358	0.368	0.372	0.382
373.2 K, x1 = 0.3	870.61	877.31	883.51	889.33	0.364	0.378	0.385	0.398
373.2 K, x1 = 0.4	845.4	851.97	858.91	864.81	0.36	0.375	0.382	0.399
373.2 K, x1 = 0.6	799.33	807.98	817.6	823.64	0.324	0.342	0.353	0.368
373.2 K, x1 = 0.8	758.8	770.24	780.53	789.08	0.276	0.294	0.307	0.326
373.2 K, x1 = 1	725.29	737.85	748.83	758.66	0.227	0.25	0.259	0.275
476.2 K, x1 = 0.1	822.65	831.4	838.61	845.82	0.141	0.144	0.148	0.151
476.2 K, x1 = 0.2	781.47	792.25	802.47	810.27	0.14	0.143	0.15	0.152
476.2 K, x1 = 0.3	746.74	760.72	772.18	780.67	0.136	0.144	0.146	0.152
476.2 K, x1 = 0.4	714.67	730.97	744.11	754.89	0.129	0.138	0.144	0.149
476.2 K, x1 = 0.6	664.45	685.36	703.08	715.13	0.115	0.123	0.131	0.14
476.2 K, x1 = 0.8	617.54	647.18	668.6	683.43	0.101	0.113	0.122	0.129
476.2 K, x1 = 1	576.84	612.56	636.82	655.67	0.088	0.1	0.109	0.116
